Results as given in patent US11773078B2, “Furin inhibitors” (Glaxosmithkline Intellectual Property Development Limited, priority 2018, dated 2023).
Where a name gives a salt, the structure may show the parent alone.

Columns and labels:
[1] = target: T1, Furin (108-574-Tev-Flag-His) enzyme (Homo sapiens, UniProt P09958); experiment: Furin enzyme assay; format: biochemical
T1 construct: Furin (108-574-Tev-Flag-His) enzyme was expressed and purified from CHO cells; TEV cleavage site (C); FLAG (C); His (C); made in house; host or cells: CHO cells
T1 sequence (P09958 108-574): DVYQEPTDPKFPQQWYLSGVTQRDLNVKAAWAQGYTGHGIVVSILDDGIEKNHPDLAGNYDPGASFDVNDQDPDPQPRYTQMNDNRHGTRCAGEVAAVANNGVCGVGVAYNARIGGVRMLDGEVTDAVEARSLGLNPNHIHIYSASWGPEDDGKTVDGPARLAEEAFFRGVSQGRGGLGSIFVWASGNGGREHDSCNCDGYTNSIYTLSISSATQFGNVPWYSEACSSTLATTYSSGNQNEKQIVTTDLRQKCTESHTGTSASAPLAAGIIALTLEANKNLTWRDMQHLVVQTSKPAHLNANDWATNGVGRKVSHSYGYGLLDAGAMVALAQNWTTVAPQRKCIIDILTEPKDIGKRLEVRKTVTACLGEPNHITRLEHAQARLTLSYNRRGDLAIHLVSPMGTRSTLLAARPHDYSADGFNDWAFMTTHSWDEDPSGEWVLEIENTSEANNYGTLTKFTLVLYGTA
Summary of the method: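 CHO-expressed, purified furin construct at 40 pM in 100 mM HEPES pH7.5, 1 mM CaCl2, 0.005% Triton X-100. Eleven-point 1:3 series, 0.00017–10 μM final, incubated 2 h at room temperature and read on Envision. pXC50 from four-parameter fit.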

[2] = target: T2, furin (endogenous protease) in U20S cells (Homo sapiens, UniProt P09958); experiment: Furin cell-based assay (image-based, Golgi-targeted GFP with BMP10 furin/PCSK cleavage site); details: 24-hour incubation, read-out: furin golgi cell pXC50 (converted);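 further: Read-out is mean GFP fluorescence of Golgi puncta per cell by high-content imaging, retained when furin inhibited, over an eleven-point 0.00017–10 µM series, four-parameter fit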
T2 construct: the endogenous protease cleaves GFP; endogenous in cells; host or cells: U2OS cells transduced with a BacMam reporter
T2 sequence (P09958 108-794): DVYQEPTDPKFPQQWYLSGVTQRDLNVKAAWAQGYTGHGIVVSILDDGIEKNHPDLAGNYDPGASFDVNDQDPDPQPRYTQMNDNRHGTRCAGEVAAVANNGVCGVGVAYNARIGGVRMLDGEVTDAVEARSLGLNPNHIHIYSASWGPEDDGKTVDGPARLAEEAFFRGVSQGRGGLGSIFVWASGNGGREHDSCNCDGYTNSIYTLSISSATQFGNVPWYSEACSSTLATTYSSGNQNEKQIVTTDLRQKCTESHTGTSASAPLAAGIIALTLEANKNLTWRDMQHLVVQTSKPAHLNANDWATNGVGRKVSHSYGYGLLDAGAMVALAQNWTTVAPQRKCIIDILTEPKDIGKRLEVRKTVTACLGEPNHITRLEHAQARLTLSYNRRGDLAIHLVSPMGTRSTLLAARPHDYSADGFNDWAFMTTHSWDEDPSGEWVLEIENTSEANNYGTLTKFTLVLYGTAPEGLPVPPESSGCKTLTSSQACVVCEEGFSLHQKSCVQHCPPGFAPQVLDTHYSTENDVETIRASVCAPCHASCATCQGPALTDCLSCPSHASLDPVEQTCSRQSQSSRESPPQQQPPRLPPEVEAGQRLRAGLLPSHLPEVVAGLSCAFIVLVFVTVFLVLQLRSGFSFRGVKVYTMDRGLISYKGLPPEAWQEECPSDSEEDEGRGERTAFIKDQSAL

SMILES	furin enzyme pIC50 [1]	EC50 [2] [nM]	IC50 ([1]; read-out: furin enzyme pIC50 (converted)) [nM]
CNC(=O)NCC1CCN(Cc2cc(Oc3cnc(N4CCN(C(C)CCS(C)(=O)=O)CC4)nc3)nc(-c3cc(F)cc(Cl)c3)c2)CC1 (stereo not shown) [Example 373, 1-((1-((2-(3-chloro-5-fluorophenyl)-6-((2-(4-(4-(methylsulfonyl)butan-2-yl)piperazin-1-yl)pyrimidin-5-yl)oxy)pyridin-4-yl)methyl)piperidin-4-yl)methyl)-3-methylurea]	8.9	5.01	–
CN1CCCN(c2ncc(Oc3cc(CN4CCC(CC(=O)O)CC4)cc(-c4cc(F)cc(Cl)c4)n3)cn2)CC1 [Example 374, 2-(1-((2-(3-chloro-5-fluorophenyl)-6-((2-(4-methyl-1,4-diazepan-1-yl)pyrimidin-5-yl)oxy)pyridin-4-yl)methyl)piperidin-4-yl)acetic acid]	7.9	158	–
CC(C)N(c1cnc(N2CCN(C)CC2)nc1)c1cc(CN2CCC(CC(=O)O)CC2)cc(-c2cc(Cl)cc(Cl)c2)n1 [Example 375, 2-(1-((2-(3,5-Dichlorophenyl)-6-(isopropyl(2-(4-methylpiperazin-1-yl)pyrimidin-5-yl)amino)pyridin-4-yl)methyl)piperidin-4-yl)acetic acid]	7.9	251	–
CN1CCN(c2ncc(Oc3cc(-c4cc(Cl)cc(Cl)c4)cc(CN4CCC(CC(=O)O)CC4)c3F)cn2)CC1 [Example 376, 2-(1-((3′,5′-dichloro-4-fluoro-5-((2-(4-methylpiperazin-1-yl)pyrimidin-5-yl)oxy)-[1,1′-biphenyl]-3-yl)methyl)piperidin-4-yl)acetic acid]	8.7	25.1	–
CN1CCN(c2ccc(Oc3nc(-c4cc(Cl)cc(Cl)c4)cc(CN4CCC(CC(=O)O)CC4)c3F)cn2)CC1 [Example 377, 2-(1-((6-(3,5-Dichlorophenyl)-3-fluoro-2-((6-(4-methylpiperazin-1-yl)pyridin-3-yl)oxy)pyridin-4-yl)methyl)piperidin-4-yl)acetic acid, 4 hydrochloride]	8.6	25.1	–
CN1C2CCC1CN(c1ncc(Oc3nc(-c4cc(Cl)cc(Cl)c4)cc(CN4CCC(CC(=O)O)CC4)c3F)cn1)C2 [Example 378, 2-(1-((6-(3,5-dichlorophenyl)-3-fluoro-2-((2-(8-methyl-3,8-diazabicyclo[3.2.1]octan-3-yl)pyrimidin-5-yl)oxy)pyridin-4-yl)methyl)piperidin-4-yl)acetic acid]	–	6.31	2
CN1CCN(c2ncc(Oc3nc(-c4cc(Cl)cc(Cl)c4)cc(CN4CCC(CC(=O)O)CC4)c3F)cn2)CC1 [Example 379, 2-(1-((6-(3,5-dichlorophenyl)-3-fluoro-2-((2-(4-methylpiperazin-1-yl)pyrimidin-5-yl)oxy)pyridin-4-yl)methyl)piperidin-4-yl)acetic acid]	8.7	20	–
Cc1nc(N2CCN(C)CC2)ncc1Oc1nc(-c2cc(Cl)cc(Cl)c2)cc(CN2CCC(CC(=O)O)CC2)c1F [Example 380, 2-(1-((6-(3,5-dichlorophenyl)-3-fluoro-2-((4-methyl-2-(4-methylpiperazin-1-yl)pyrimidin-5-yl)oxy)pyridin-4-yl)methyl)piperidin-4-yl)acetic acid]	9.6	63.1	–
CC(=O)NCC1CCN(Cc2cc(-c3cc(Cl)cc(Cl)c3)nc(Oc3cnc(N4CCN(CCC(C)C(=O)O)CC4)nc3)c2F)CC1 (stereo not shown) [Example 381, 4-(4-(5-((4-((4-(acetamidomethyl)piperidin-1-yl)methyl)-6-(3,5-dichlorophenyl)-3-fluoropyridin-2-yl)oxy)pyrimidin-2-yl)piperazin-1-yl)-2-methylbutanoic acid]	8.9	10	–
O=C(O)CC1CCN(Cc2cc(-c3cc(Cl)cc(Cl)c3)nc(Oc3cnc(N4CC5CCC(C4)N5)nc3)c2F)CC1 [Example 382, 2-(1-((2-((2-(3,8-diazabicyclo[3.2.1]octan-3-yl)pyrimidin-5-yl)oxy)-6-(3,5-dichlorophenyl)-3-fluoropyridin-4-yl)methyl)piperidin-4-yl)acetic acid]	8.6	6.31	–
Cc1nc(N2CCN(C)CC2)ccc1Oc1nc(-c2cc(Cl)cc(Cl)c2)cc(CN2CCC(CC(=O)O)CC2)c1F [Example 383, 2-(1-((6-(3,5-dichlorophenyl)-3-fluoro-2-((2-methyl-6-(4-methylpiperazin-1-yl)pyridin-3-yl)oxy)pyridin-4-yl)methyl)piperidin-4-yl)acetic acid]	8.4	63.1	–
CN1CCN(c2ccc(Oc3nc(-c4cc(Cl)cc(Cl)c4)cc(CN4CCC(CC(=O)O)CC4)c3F)nn2)CC1 [Example 384, 2-(1-((6-(3,5-dichlorophenyl)-3-fluoro-2-((6-(4-methylpiperazin-1-yl)pyridazin-3-yl)oxy)pyridin-4-yl)methyl)piperidin-4-yl)acetic acid]	8.4	25.1	–
COC(=O)CCN1CCN(c2ccc(Oc3cc(CN4CCC(CNC(C)=O)CC4)cc(-c4cc(Cl)cc(Cl)c4)n3)cn2)CC1 [Example 385, Methyl 3-(4-(5-((4-((4-(Acetamidomethyl)piperidin-1-yl)methyl)-6-(3,5-dichlorophenyl)pyridin-2-yl)oxy)pyridin-2-yl)piperazin-1-yl)propanoate]	8.4	12.6	–
Cc1c(CN2CCC(CC(=O)O)CC2)cc(-c2cc(Cl)cc(Cl)c2)nc1Oc1ccc(N2CCN(C)CC2)nc1 [Example 386, 2-(1-((6-(3,5-Dichlorophenyl)-3-methyl-2-((6-(4-methylpiperazin-1-yl)pyridin-3-yl)oxy)pyridin-4-yl)methyl)piperidin-4-yl)acetic acid, 4 hydrochloride]	8.4	10	–
O=C(O)CC1CCN(Cc2cc(Oc3cnc(N4CCN(Cc5cnn[nH]5)CC4)nc3)nc(-c3cc(Cl)cc(Cl)c3)c2)CC1 [Example 387, 2-(1-((2-((2-(4-((1H-1,2,3-Triazol-5-yl)methyl)piperazin-1-yl)pyrimidin-5-yl)oxy)-6-(3,5-dichlorophenyl)pyridin-4-yl)methyl)piperidin-4-yl)acetic acid]	8.5	25.1	–
CN1CCN(c2ncc(N(C)c3cc(CN4CCC(CC(=O)O)CC4)cc(-c4cc(Cl)cc(Cl)c4)n3)cn2)CC1 [Example 388, 2-(1-((2-(3,5-Dichlorophenyl)-6-(methyl(2-(4-methylpiperazin-1-yl)pyrimidin-5-yl)amino)pyridin-4-yl)methyl)piperidin-4-yl)acetic acid, 4 hydrochloride]	8.1	50.1	–
CCN(c1cnc(N2CCN(C)CC2)nc1)c1cc(CN2CCC(CC(=O)O)CC2)cc(-c2cc(Cl)cc(Cl)c2)n1 [Example 389, 2-(1-((2-(3,5-Dichlorophenyl)-6-(ethyl(2-(4-methylpiperazin-1-yl)pyrimidin-5-yl)amino)pyridin-4-yl)methyl)piperidin-4-yl)acetic acid]	8.2	63.1	–
CC(=O)NCC1CCN(Cc2cc(Oc3cnc(N4CCN(CCC(N)=O)CC4)cn3)nc(-c3cc(Cl)cc(Cl)c3)c2)CC1 [Example 391, 3-(4-(5-((4-((4-(acetamidomethyl)piperidin-1-yl)methyl)-6-(3,5-dichlorophenyl)pyridin-2-yl)oxy)pyrazin-2-yl)piperazin-1-yl)propanamide]	8.7	6.31	–
CCC(=O)NCC1CCN(Cc2cc(Oc3cnc(N4CCN(CCC(C)C(=O)O)CC4)cn3)nc(-c3cc(Cl)cc(Cl)c3)c2)CC1 (stereo not shown) [Example 392, 4-(4-(5-((6-(3,5-dichlorophenyl)-4-((4-(propionamidomethyl)piperidin-1-yl)methyl)pyridin-2-yl)oxy)pyrazin-2-yl)piperazin-1-yl)-2-methylbutanoic acid]	9	15.8	–
CC(=O)NCC1CCN(Cc2cc(Oc3cnc(N4CCN(C(C)CO)CC4)cn3)nc(-c3cc(Cl)cc(Cl)c3)c2)CC1 (stereo not shown) [Example 393, N-((1-((2-(3,5-dichlorophenyl)-6-((5-(4-(1-hydroxypropan-2-yl)piperazin-1-yl)pyrazin-2-yl)oxy)pyridin-4-yl)methyl)piperidin-4-yl)methyl)acetamide]	9.2	2.51	–
CNC(=O)NCC1CCN(Cc2cc(Oc3cnc(N4CCN(C)CC4)cn3)nc(-c3cc(Cl)cc(Cl)c3)c2)CC1 [Example 394, 1-((1-((2-(3,5-dichlorophenyl)-6-((5-(4-methylpiperazin-1-yl)pyrazin-2-yl)oxy)pyridin-4-yl)methyl)piperidin-4-yl)methyl)-3-methylurea]	9	6.31	–
COC(=O)NCC1CCN(Cc2cc(Oc3cnc(N4CCN(C)CC4)cn3)nc(-c3cc(Cl)cc(Cl)c3)c2)CC1 [Example 395, methyl ((1-((2-(3,5-dichlorophenyl)-6-((5-(4-methylpiperazin-1-yl)pyrazin-2-yl)oxy)pyridin-4-yl)methyl)piperidin-4-yl)methyl)carbamate]	9.2	31.6	–
CC(=O)NCC1CCN(Cc2cc(Oc3cnc(N4CCN(CCC(C)C(=O)O)CC4)cn3)nc(-c3cc(Cl)cc(Cl)c3)c2)CC1 (stereo not shown) [Example 396, 4-(4-(5-((4-((4-(acetamidomethyl)piperidin-1-yl)methyl)-6-(3,5-dichlorophenyl)pyridin-2-yl)oxy)pyrazin-2-yl)piperazin-1-yl)-2-methylbutanoic acid]	10.3	10	–
